Laboratory results: patent US5208242A, “5-substituted-4-phenyl-5H-imidazo[4,5-c]pyridine derivatives” (G. D. Searle & Co., priority 1992, dated 1993)

Molecular target: T1, PAF receptor (Homo sapiens, UniProt P25105)
T1 construct: tissue Lifesource, Inc. (Glenview, Ill.); host or cells: human packed platelets (washed, freeze-thawed membrane preparation)
Assay: Inhibition of the Specific Binding of [^3 H]PAF to Human Platelet Membrane Preparation
Details: 0.75 nM [^3 H]PAF, 30 minutes at 24° C., pH 7.4
Experimental: Inhibition of the Specific Binding of [^3 H]PAF to Human Platelet Membrane Preparation.
Human packed platelets were obtained from Lifesource, Inc. (Glenview, Ill.) and washed 3 times with 10 mM Trizma pH 7.0, 2 mM EDTA (dipotassium salt), 150 mM KCl and then once with 10 mM Trizma 7.4, 20 mM CaCl2. The platelets were broken by freezing in a dry ice-ethanol bath, followed by thawing in 24° C. water baths. The preparation was centrifugation (40,000×g, 20 minutes, 4' C) and the pellet resuspended in 10 mM Trizma 7.4, 20 mM CaCl2, 5 mg/ml human albumin. Protein concentration in the platelet membrane preparation was determined by the Lowry method [O.H. Lowry et al. J. Biological Chemistry, 193, 265-275 (1951)]. Aliquots of the membrane preparation were stored at -70° C. Each preparation was characterized for PAF receptor number and dissociation constant (Kd). In binding assays 5 μl of test compound, solubilized in DMSO, was added to polypropylene tubes along with 0.75 nM [^ 3 H]PAF and 200 mcl [0.075 nM] of membranes and 95 μl 10 mM Trizma 7.4, […], 5 mg/ml human albumin. Tubes were incubated for 30 minutes at 24° C. […] Filters were prepared and counted for a scintillation counter. […] The IC50 values were determined by the Allfit program using percent displacement data. […]

T1 sequence (P25105 whole entry): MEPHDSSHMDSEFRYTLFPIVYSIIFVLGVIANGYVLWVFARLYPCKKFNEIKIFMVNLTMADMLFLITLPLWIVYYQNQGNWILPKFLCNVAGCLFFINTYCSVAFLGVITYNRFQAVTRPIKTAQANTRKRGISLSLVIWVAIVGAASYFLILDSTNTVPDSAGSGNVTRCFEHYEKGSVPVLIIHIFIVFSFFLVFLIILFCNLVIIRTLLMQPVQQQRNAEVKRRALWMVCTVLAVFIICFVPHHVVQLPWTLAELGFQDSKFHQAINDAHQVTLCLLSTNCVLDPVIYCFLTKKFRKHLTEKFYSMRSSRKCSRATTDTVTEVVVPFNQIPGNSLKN

IC50: 1040 nM
Structure (SMILES): COc1cc(C(=O)N(C(C)C)C2CCCCC2)ccc1Cn1ccc2ncnc-2c1-c1ccccc1 [Compound 9, N-cyclohexyl-3-methoxy-N-(1-methylethyl)-4-[(4-phenyl-5H-imidazo[4,5-c]pyridin-5-yl)methyl]benzamide]
